These results are taken from patent US20190247373A1, “METHODS FOR TREATING FIBROSIS” (CHILDREN'S HOSPITAL MEDICAL CENTER, priority 2016, published 2019).

The conditions of data set [1]: treatment of idiopathic pulmonary fibrosis; cited from earlier work.
Another data set deals with mice. In words: Mouse model of bleomycin-induced pulmonary fibrosis (repetitive intradermal bleomycin). The data set is classed as in vivo. As to conditions: bleomycin 6 units per kg intradermally, 5 days a week for 4 wks; vs saline-treated controls. An excerpt: FIG. 5: Mouse model of bleomycin-induced pulmonary fibrosis. Masson's trichrome-stained lung sections show extensive collagen deposition in mice treated intradermally with bleomycin (6 U/kg body weight; 5 days/week for 4 weeks) (B) compared to saline (A).
We developed an alternative mouse model of bleomycin-induced pulmonary fibrosis. For these experiments, we injected mice (N=5 mice/group) intradermally with bleomycin (6 units per kg body weight) for 5 days in a week for a total of 4 wks.

The subject of the next data set is IPF fibroblasts. In words: Gene expression in primary fibroblasts isolated from fibrotic lesions of IPF lungs. The data set is classed as cell-based, human. As to conditions: naltrexone 10 μM, 24 hrs, vs vehicle. Here is the method: FIG. 10: Naltrexone treatment attenuates ECM and proliferation gene expression in IPF fibroblasts. Expression of ECM genes (FN1, Col3α, and αSMA) and proliferation gene (Aurka) was attenuated in IPF fibroblasts treated with naltrexone (10 μM) compared to vehicle treatment for 24 hrs in IPF fibroblasts. Unpaired t-test (N=3/group; *P<0.05).
We treated primary fibroblasts isolated from fibrotic lesions of IPF lungs. […] These findings are consistent with a mechanism of action for opioid receptor inhibitors (e.g., naltrexone) that influences (e.g., decreases) ECM and proliferation.

Data set [2] has as its system TGFα mice. In words: Naltrexone therapy in TGFα-induced pulmonary fibrosis: body weight, lung weight, lung function (FlexiVent). The note with it: 80 mg/kg b.i.d. for three weeks, started after three weeks on Dox, vs vehicle. The data set is classed as in vivo. The method, then:
FIG. 7: Naltrexone therapy attenuates body weight loss in pulmonary fibrosis. (A) Experimental schemata of naltrexone therapy study in vivo. Three groups of mice on Dox for three weeks were treated with either vehicle or naltrexone (80 mg/kg bodyweight, b.i.d) and then sacrificed after three weeks of treatment while continued on Dox. (B) The loss of body weight was attenuated with naltrexone therapy compared to vehicle treatment in TGFα mice. One-Way ANOVA (N=4−6/group; *P<0.05).
FIG. 8: Naltrexone therapy attenuates increase in lung weights in pulmonary fibrosis. Three groups of mice on Dox for three weeks were treated with either vehicle or naltrexone (80 mg/kg bodyweight, b.i.d) and then sacrificed after three weeks of treatment while continued on Dox. The increase in lung weights was attenuated with naltrexone therapy compared to vehicle treatment in TGFα mice. One-Way ANOVA (N=4−6/group; *P<0.05).
FIG. 9: Naltrexone therapy attenuates lung function decline in pulmonary fibrosis. Three groups of mice on Dox for three weeks were treated with either vehicle or naltrexone (80 mg/kg bodyweight, b.i.d) and then sacrificed after three weeks of treatment while continued on Dox. Decrease in the lung function (A,
Resistance; B, Compliance; C, Elastance) was attenuated with naltrexone therapy compared to vehicle treatment in TGFα mice. One-Way ANOVA (N=4−6/group; *P<0.05).
(§1) To probe mechanisms of EGFR-mediated lung remodeling, we generated transgenic mice in which TGFα was conditionally overexpressed in the lung epithelium using the CCSP rtTA promoter. When doxycycline (Dox) was administered, overexpression of TGFα in the adult mice (N=4−5 mice/group) caused progressive and extensive adventitial, interstitial, and subpleural fibrosis. Several histological features of fibrosis in the TGFα model were found in the pathologic lesions of IPF, including subpleural fibrosis radiating into the adjoining interstitium and the differentiation of myofibroblasts (FIG. 3). Physiologically, the mice developed progressive cachexia and lung-function decline with gene expression profiles similar to human IPF. The proenkephalin A (PENK) gene that codes for several opioid peptides was elevated in fibrotic lungs during TGFα-induced pulmonary fibrosis (FIG. 4).
Naltrexone therapy attenuates body weight loss in pulmonary fibrosis. […] Three groups of mice (N=4−6 mice/group) were on Dox for three weeks, and were then treated with either vehicle or naltrexone (80 mg/kg bodyweight, b.i.d) along with Dox for another three weeks; six weeks after being on DOX and three weeks after being treated with vehicle or naltrexone, the mice were sacrificed. The down arrow represents initiation of the vehicle or naltrexone treatment and the horizontal arrows indicate the duration of the vehicle or naltrexone treatment (three weeks while continuing to administer Dox).
Naltrexone therapy attenuates increase in lung weights in pulmonary fibrosis. Mice (N=4−6 mice/group) were on Dox for three weeks, and were then treated with either vehicle or naltrexone (80 mg/kg bodyweight, b.i.d) along with Dox for another three weeks; six weeks after being on DOX and three weeks after being treated with vehicle or naltrexone, the mice were sacrificed (See, e.g., FIG. 7A). […] In TGFα mice, increases in lung weight are due to pulmonary fibrosis.
Naltrexone therapy attenuates lung function decline in pulmonary fibrosis. […]

Data set [3] concerns TGFα mice. In words: Short-term naltrexone therapy in TGFα-induced pulmonary fibrosis: total lung RNA gene expression. As to conditions: 10 mg/kg or 50 mg/kg b.i.d. for one week, started after two weeks on Dox; vs vehicle. The data set is classed as in vivo. Here is the method:
FIG. 6: Naltrexone therapy attenuates ECM and proliferative gene expression in pulmonary fibrosis. (A) Experimental schemata of naltrexone therapy study in vivo. Three groups of mice on Dox for two weeks were treated with either vehicle or naltrexone (10 mg/kg or 50mg/kg bodyweight, b.i.d) and sacrificed after a week of treatment while continued on Dox. Total lung RNA was analyzed for the expression of: (B) ECM genes (FN1, Col5α, and Col6α) and (C) proliferation genes (Aurka, IL-6, and Calcb). One-Way ANOVA (N=4/group; *P<0.05).
as §1
Naltrexone therapy attenuates ECM and proliferative gene expression in pulmonary fibrosis. […] Three groups of mice (N=4 mice/group) on Dox for two weeks were treated with either vehicle or naltrexone (10 mg/kg or 50 mg/kg bodyweight, b.i.d) and sacrificed after a week of treatment while continued on Dox. The down arrow represents initiation of the vehicle or drug treatment (at two weeks on Dox) and the horizontal arrows indicate the duration of vehicle or drug treatment (one week while continuing to administer Dox). […] The RNA from the three ECM genes decreased when treated with naltrexone. […] The RNA from the three proliferation genes decreased when treated with naltrexone.

As for `COC(=O)c1ccc2c(c1)NC(=O)/C2=C(\Nc1ccc(N(C)C(=O)CN2CCN(C)CC2)cc1)c1ccccc1` [nintedanib], in data set [1], the Effect on mortality entry is “neither pirfenidone nor nintedanib had any effect”.

As to `Cc1ccc(=O)n(-c2ccccc2)c1` [pirfenidone], in data set [1], the Effect on mortality result was “neither pirfenidone nor nintedanib had any effect” and the “Effect on respiratory symptoms” value is listed as “no effect”.

In the case of bleomycin, in the data set on mice, the “Increase in airway resistance” value is “greater than two-fold” and the “Increase in lung hydroxyproline levels” value is “greater than two-fold”.

As to `O=C1CC[C@@]2(O)[C@H]3Cc4ccc(O)c5c4[C@@]2(CCN3CC2CC2)[C@H]1O5` [naltrexone, 17-(cyclopropylmethyl)-4,5α-epoxy-3,14-dihydroxymorphinan-6-one], in the data set on IPF fibroblasts, the “Expression of ECM gene alpha smooth-muscle actin (αSMA)” value is reported as “inhibited”, the “Expression of ECM gene fibronectin 1 (FN1)” value is “inhibited”, the “Expression of ECM gene procollagen 3α1 (Col3α)” value is “inhibited” and the “Expression of proliferation gene Aurora kinase A (AURKA)” value is “inhibited”. In the data set on TGFα mice [2] (FlexiVent), the “Dox-induced changes in lung function: Compliance” value is on record as “reversed”, the “Dox-induced changes in lung function: Elastance” value was “reversed” and the “Dox-induced changes in lung function: Resistance” value is “reversed”. Moreover, in the data set with TGFα mice [2], the “Increase in lung weights” value is given as “attenuated” and the “Loss of body weight” value is recorded as “attenuated”. In addition, in the data set on TGFα mice [3], the “Total lung RNA expression of ECM gene Collagen alpha 1 V (Col5α)” value is “decreased”, the “Total lung RNA expression of ECM gene Collagen alpha 1 VI (Col6α)” value was “decreased”, the “Total lung RNA expression of ECM gene Fibronectin (FN1)” value was “decreased” and the “Total lung RNA expression of proliferation gene Aurora kinase A (Aurka)” value was “decreased”. Moreover, in the data set on TGFα mice [3], the “Total lung RNA expression of proliferation gene Calcitonin Related Polypeptide Beta (Calcb)” value is recorded as “decreased” and the “Total lung RNA expression of proliferation gene Interleuken 6 (IL-6)” value is “decreased”.
